For experiment [1], the system named is PBMCs from a patient with acute hepatitis. Kind of experiment: CTL response to HBx peptide in PBMCs of a patient with acute hepatitis, HLA-A2 matched peptide-pulsed targets. Type of experiment: cell-based, human.
The test system is the same in experiment [2]. Kind of experiment: CTL response to HBenv 348-357 peptide in PBMCs of a patient with acute hepatitis, HLA-A2 matched targets. Type of experiment: cell-based, human. As to the method:
The CTL induced by the HBenv 348-357 peptide were identified in PBMCs from a patient with acute hepatitis according to the procedure set forth in Example XV, except that the PMBCs were stimulated with individual peptide rather than peptide mixtures. The resulting CTL line was then tested for the ability to kill HLA-A2 matched target cells that were pulsed with the peptide or that expressed endogenous envelope antigens of ayw or adw subtypes.

The test system of experiment [3] is PBMC from HLA-A2 positive patients with acute hepatitis B. Type of experiment: cell-based, human.
The target of experiment [4] is T1, HLA-A2.1 (Homo sapiens, UniProt P04439, D140Y/D185E/D98H/E176V/E277Q/G131W/G231S/I119V/I121R/I166T/I218V/L300P/L318F/N151K/N90K/P208A/P217A/Q86G/Q94H/R138H/R169H/T345S).
T1 construct: Purified class I molecules (10 to 50 nM) were incubated at room temp. with various doses of the peptides
Type of experiment: binding.

The test system of experiment [5] is CTL clone 3D11 (HLA A31 restricted). It counts as cell-based, human.
Experiment [6] deals with CTL clones 3D11 and 2D7. Particulars: peptide 10-3 μM to 1μM.
Experiment [7] has as its system CTL clone 2D7 (HLA Aw68 restricted). Type of experiment: cell-based, human.
In experiment [8] the test system is HBpol455-463 specific CTL. Type of experiment: cell-based, human.
For experiment [9], the system named is PBMCs from a patient with acute hepatitis (HLA-A2+). Type of experiment: cell-based, human. Particulars: patient HLA-A2+ with acute hepatitis.
Setting [10] is: ratio from IC50 competition with radiolabeled HBc18-27 analogue, 48 hrs, room temp.

Where two headings read alike, the source gives them in different places.

EIRLKVFVL: in experiment [1], the “induction of specific CTL response by peptide” value was “not able to induce a specific CTL response” and the “recognition by CTL induced with the analog peptide AIRLKVFVL” value is listed as “also recognized the peptide with the wild type sequence”.
As for “Gly-Leu-Ser-Pro-Thr-Val-Trp-Leu-Ser-Val (GLSPTVWLSV; printed: Gly-Leu-Ser-Pro-Thr-Val-Trp-Leu-Ser-Val) [HBenv peptide 348-357]”, in [2], the “CTL recognition of envelope antigen of the adw subtype” value is listed as “did not recognize the adw subtype”. Also, in experiment [2] (effector:target cell ratio of 3:1), the “CTL response to target cells pulsed with peptide” value was “responded to target cells”.
For the substance “WLSLLVPFV [Env335-343, reference compound]”, in experiment [3], the “% 51Cr Release Mean” value is 66%, the “% 51Cr Release Range” value is listed as 21-88% and the “Acute HBV patients Responders” value was 6. Also, in experiment [4] (setting [10]), the “Binding affinity (HLA-A2.1 binding affinity ratio)” value was found to be 0.7200.
As to SLYADSPSV [Pol816-824], in experiment [3], the “% 51Cr Release Mean” value came to 30%, the “% 51Cr Release Range” value is 25-32% and the “Acute HBV patients Responders” value is 3. Further, the “Binding affinity (HLA-A2.1 binding affinity ratio)” value in [4] was 0.3500.
On to “AIRLKVFVL [HBx peptide 126-134 with the amino terminal residue substituted with alanine]”, for which, in [1], the “induction of specific CTL response by peptide” value is recorded as “CTL were stimulated”.
For YLHTLWKAGI [Pol149-158], in experiment [3], the “Acute HBV patients Responders” value worked out at 0. Besides, the “Binding affinity (HLA-A2.1 binding affinity ratio)” value in experiment [4] (setting [10]) was found to be 0.0560.
Take STLPETTVVRR [141-151]: the “Clone 3D11 Restriction Element A31 Percent 51CR Release” value in [5] turned out to be 69%. Also, the “efficiency of target lysis in dose titration” value in experiment [6] is on record as “minimal optimally recognized epitope recognized by both of the CTL clones”. Moreover, the “Clone 2D7 Restriction Element Aw68 Percent 51CR Release” value in experiment [7] is recorded as 66%.
As for “GVSRYVARL [variant of HBpol455-463 (ayw isolate)]”, the “recognition by GLSRYVARL (HBpol455-463) induced CTL” value in [8] was “poorly recognized”.
Take DLNLGNLNV [927.30]: the “CTL response using target cells pulsed with peptide” value in experiment [9] is listed as “did not stimulate the specific CTL response”.
For GLSRYVVCL, the “HLA-A2 binding affinity compared with the prototype peptide GLSRYVARL” value in experiment [4] is “greater than the prototype peptide”.

The values are drawn from patent publication US6607727B1, “Peptides for inducing cytotoxic T lymphocyte responses to hepatitus B virus” (priority 1991, dated 2003).
